# What was measured:
# [1] = Animal long-term toxicity test, conversion to human maximum tolerated dose; format: in vivo; settings: converted from animal long-term toxicity test, human body weight of 60 kg
# Procedure: A specific dose and administration frequency can be determined by a skilled physician according to conventional skills allowing for factors such as the route of administration, the health condition of the patient, etc. In the first dose escalation study (phase I trial) in a human, the most sensitive animal species were selected to calculate the maximum recommended starting dose for clinical trials according to the pre-clinical toxicology study. The starting dose was calculated according to the calculation methods recommended by "Technical Guidelines for Non-Clinical Research on Anti-Cancer Drugs" and other guidelines. In some embodiments, in the phase 1 clinical trial of compound (I), in order to ensure the safety of subjects, in combination with the operability of clinical trials and formulation specification, the starting dose of compound (I) for the phase I clinical trial was designed to be 5 mg. Based on the results of an animal long-term toxicity test, the maximum tolerated dose for the human body is converted into 200 mg according to the human body weight of 60 kg. In the phase 1 clinical trial of compound (I), the safety, tolerance, and efficacy of the continuous administration regimen of a daily administration dose of 5 mg-200 mg were researched. […]
# [2] = test system: meningioma cells IOMM-Lee; assay: EdU cell proliferation assay; format: cell-based, human; settings: 1 µM, 24 h, versus blank control group
# Procedure: The IOMM-Lee single cell suspension in the logarithmic growth phase obtained in Example 1 was seeded in a 6-well plate at a cell density of 3 × 10^5 cells/mL, cultured overnight, and grouped into a blank control group and a compound (I) treatment group (concentration: 1 µM; treatment duration: 24 h). Subsequently, each group was incubated with EdU (10 µM) for 2 h; the culture medium was discarded; and the cells were washed with PBS (in this experiment, PBS was used in the washing process). The cells were fixed with 4% paraformaldehyde; the stationary liquid was discarded; and the cells were washed. After that, the cells were permeabilized with 0.3% Triton X100; the permeabilization liquid was discarded; and the cells were washed. Then, a prepared click reaction solution (commercially available C0081 BeyoClick™ EdU Cell Proliferation Kit with Alexa Fluor 647) was added; the mixture was incubated in the dark at room temperature for 30 min; the reaction solution was discarded; and the cells were washed. The cell nuclei were stained with Hoechst 33342 fluorescent dye by adding 1× Hoechst 33342 solution at 1 mL/well, followed by incubated in the dark at room temperature for 10 min; 1× Hoechst 33342 solution was removed by pipetting; and the cells were washed 3 times. Subsequently, a fluorescence assay was performed, and the results were recorded.
# patients with meningioma = assay: Phase I clinical trial, tumor assessment by RANO criteria for meningioma; format: in vivo, human; settings: for C2 target lesion shrinkage / target lesion shrinkage: head MRI; for target lesion shrinkage: after 6 cycles
# Procedure: Compound (I) is currently undergoing phase I clinical trials to evaluate the preliminary efficacy on patients with meningioma.
# Drug: compound (I) oral solution, 10-25 mg/day, once daily.
# If no serious adverse events occurred, subsequent treatment cycles (21 days for each cycle) of administration may begin until progressive disease (PD) or intolerable toxicity occurred.
# The efficacy on tumors was evaluated according to the RANO Criteria for Meningioma (Huang, Raymond Y et al. Proposed response assessment and endpoints for meningioma clinical trials: report from the Response Assessment in Neuro-Oncology Working Group. Neuro-oncology. vol. 21, 1 (2019): 26-36. doi:10.1093/neuonc/noy137). Target lesions were selected from tumor lesions with enhancement according to the criteria and precisely measured. The tumor treatment efficacy on the target lesions was confirmed by comparing the changes in the measured values. […] In addition, the improvement and deterioration of clinical symptoms of patients and the change in steroid hormone doses for symptomatic treatment of neurological symptoms were also used as evaluation indexes in tumor assessment. A tumor assessment was performed at baseline prior to the first administration and then performed once every 6 weeks during the administration until progressive disease (PD) occurred or a new anti-tumor treatment started.
# [3] = test system: Human meningioma cell line IOMM-Lee cells; assay: Trypan blue viable cell counting, cell viability; format: cell-based; settings: 24 h
# Procedure: Human meningioma cell line IOMM-Lee cells (purchased from ATCC) were cultured using a DMED culture medium containing 10% FBS and 100 U/mL penicillin-streptomycin double antibiotics in an incubator with 5% CO2 at 37 °C. The cells in the logarithmic growth phase were seeded uniformly in a 6-well plate at a density of 2 × 10^5 cells/mL and cultured for 24 h, and then the cells were grouped into a blank control group and compound (I) treatment groups at different concentrations. The compound (I) treatment concentrations were 0.4 µM, 0.8 µM, 1.6 µM, 2 µM, 10 µM, 20 µM, 60 µM, and 120 µM, and 3-4 replicate wells were set for each group. After cells in the groups were separately cultured for 24 h, the cells were digested with 0.25% trypsin, and 50 µL of each cell suspension was mixed with 50 µL of 0.4% trypan blue solution to a final trypan blue concentration of 0.2%. Subsequently, 10 µL of the uniform cell suspension was added to a counting plate and counted under a microscope for the total cell count and dead cell count. Statistical analysis was performed.
# CH157-MN [4] = assay: Apoptosis by annexin V-FITC/PI flow cytometry; format: cell-based, human; settings: CH157-MN, 2, 5, 10 µM, 24 h, versus blank control
# Procedure: (§1) • (1) The IOMM-Lee single cell suspension in the logarithmic growth phase was seeded in a 6-well plate at a cell density of 5 × 10^5 cells/mL, cultured overnight, and grouped into a blank control group and compound (I) treatment groups at different concentrations, with concentrations of compound (I) being 1 µM, 5 µM, and 10 µM, respectively, and 3-4 replicate wells were set. After the addition of compound (I) at different concentrations for the treatment for 24 h, (1-10) × 10^5 cells were collected from the blank control group and each compound (I) treatment group, washed with PBS, and centrifuged. The cells were resuspended in 500 µL of 1× binding buffer. 5 µL of annexin V-FITC and 10 µL of PI were added to each tube. After gently and homogeneously mixing by vortex, the cells were incubated in the dark at room temperature for 5 min and then subjected to flow cytometry. • (2) With reference to the experimental method (1), the concentrations in the compound (I) treatment groups were replaced by 2 µM, 5 µM, and 10 µM, respectively, and the used human meningioma cell line was IOMM-Lee or CH157-MN.
# IOMM-Lee [5] = assay: Apoptosis by annexin V-FITC/PI flow cytometry; format: cell-based, human; settings: IOMM-Lee, 1, 5, 10 µM and 2, 5, 10 µM, 24 h, versus blank control
# Procedure: as §1
# CH157-MN [6] = assay: Cell scratch assay (migration); format: cell-based, human; settings: CH157-MN, 2, 5, 10 µM, 24 h, versus blank control; dose-dependent
# Procedure: (§2) • (1) The IOMM-Lee single cell suspension in the logarithmic growth phase was seeded in a 6-well plate at a cell density of 6 × 10^5 cells/mL and cultured for 24 h to ensure the full covering of the entire cell culture dish by the growing cells. A cell scratch was made by a 10 µL sterile pipette tip perpendicular to the culture dish; the original culture solution was discarded; and the detached cells were pipetted by washing with PBS 3 times. The cells were cultured using a serum-free DMEM culture medium and grouped into a blank control group and compound (I) treatment groups at different concentrations, where the compound (I) treatment groups had concentrations of 0.5 µM, 1 µM, and 2 µM, respectively. The cells were observed under the bright field of a microscope and recorded at 0 h and 24 h. • (2) With reference to the experimental method (1), the concentrations in the compound (I) treatment groups were replaced by 2 µM, 5 µM, and 10 µM, respectively, and the used human meningioma cell line was IOMM-Lee or CH157-MN.
# IOMM-Lee [7] = assay: Cell scratch assay (migration); format: cell-based, human; settings: IOMM-Lee, 0.5, 1, 2 µM and 2, 5, 10 µM, 24 h, versus blank control; dose-dependent
# Procedure: as §2
# CH157-MN [8] = assay: Transwell chamber assay (invasion); format: cell-based, human; settings: CH157-MN, 2, 5, 10 µM, 24 h; with increasing concentration
# Procedure: (§3) • (1) The upper chamber of the pre-cooled Transwell chamber was coated with 50 µL of matrigel, and the matrigel-coated chamber was incubated in an incubator at 37 °C for 6-8 h to allow the matrigel to polymerize into a gel. After 100 µL of a serum-free culture medium was added to each well, the chamber was placed in an incubator for 1 h to allow the basement membrane hydration. The liquid in the upper chamber was removed, and the IOMM-Lee single cell suspension in the logarithmic growth phase was adjusted to a cell density of 2 × 10^5 cells/mL using the serum-free DMEM culture medium; 200 µL of the cell suspension was added to the Transwell chamber; and the culture liquid in the lower chamber was a DMEM culture medium with 20% FBS. Compound (I) samples at different concentrations (0 µM, 0.5 µM, 1 µM, and 2 µM, respectively) were added to the chamber. The culture was finished 24 h later; and the cells in the chamber were removed with a cotton swab, fixed with 4% paraformaldehyde for 20 min, washed with PBS 3 times, stained with crystal violet for 30 min, and observed under a microscope. The invading cells were counted. • (2) With reference to the experimental method (1), the concentrations in the compound (I) treatment groups were replaced by 2 µM, 5 µM, and 10 µM, respectively, and the used human meningioma cell line was IOMM-Lee or CH157-MN.
# IOMM-Lee [9] = assay: Transwell chamber assay (invasion); format: cell-based, human; settings: IOMM-Lee, 0.5, 1, 2 µM and 2, 5, 10 µM, 24 h; with increasing concentration
# Procedure: as §3
# [10] = 34 meningioma patients, oral solution 10-25 mg/day
# [11] = RANO criteria for meningioma, 34 meningioma patients, oral solution 10-25 mg/day
# [12] = by Feb. 2, 2024, 32 patients completed the tumor assessment, oral solution 10-25 mg/day
# [13] = by Jan. 16, 2023, 5 patients completed the tumor assessment, oral solution 10-25 mg/day
# [14] = of 34 meningioma patients, oral solution 10-25 mg/day
compound,measurement,setting,value
Cc1cc(NC(=O)c2cccc3cc(-c4cccc5[nH]nc(N)c45)ccc23)ccc1F [compound (I)],maximum tolerated dose for the human body,[1],200 mg
same,EdU-labeled (proliferating) cells,[2],significantly fewer than those in the blank control group
same,adverse events associated with the administration (severity),patients with meningioma; [10],mostly mild and moderate
same,adverse events with an incidence of greater than 20%,patients with meningioma; [10],"hypertension, decreased platelet count, increased blood lactate dehydrogenase, sinus bradycardia, proteinuria, increased aspartate aminotransferase, increased alanine aminotransferase, hypokalemia, hyperlipidemia, decreased neutrophil count, decreased leukocyte count, diarrhea, and anemia"
same,disease control rate,patients with meningioma; [11],82.4%
same,objective remission rate,patients with meningioma; [11],29.41%
same,C2 target lesion shrinkage,"patients with meningioma; Typical case 1: anaplastic meningioma WHO grade III, oral solution 15 mg once daily, two cycles",56%
same,adverse events during the treatment,patients with meningioma; Typical case 1: oral solution 15 mg once daily,No adverse events
same,clinical symptoms reported by subject,"patients with meningioma; Typical case 1: oral solution 15 mg once daily, two cycles",significantly mitigated head-distending pain
same,clinical symptoms of subject,"patients with meningioma; Typical case 2: baseline blindness in both eyes, oral solution 15 mg once daily, after two cycles",vision recovery and self-care recovery
same,C2 target lesion shrinkage,"patients with meningioma; Typical case 2: meningioma (fibrous) WHO grade I, oral solution 15 mg once daily, two cycles",36%
same,main adverse event during the treatment,"patients with meningioma; Typical case 2: oral solution 15 mg once daily, recovered after administration was suspended",mild or moderate hypertension
same,C2 target lesion shrinkage,"patients with meningioma; Typical case 3: malignant meningioma, oral solution 15 mg once daily",56%
same,main adverse event during the treatment,"patients with meningioma; Typical case 3: oral solution 15 mg once daily, recovered after taking a hypotensor",mild or moderate hypertension
same,target lesion shrinkage,"patients with meningioma; Typical case 4: atypical meningioma WHO grade II, oral solution 20 mg once daily",61.47%
same,main adverse events during the treatment,"patients with meningioma; Typical case 4: oral solution 20 mg once daily, recovered after symptomatic treatment","mild proteinuria, decreased platelet count, decreased neutrophil count, decreased leucocyte count, and increased alanine aminotransferase"
same,main adverse events during the treatment,"patients with meningioma; Typical case 5: oral solution 25 mg once daily, mitigated/recovered after symptomatic treatment","mild hypertension, decreased platelet count, decreased neutrophil count, and increased alanine aminotransferase"
same,target lesion shrinkage,"patients with meningioma; Typical case 5: papillary meningioma WHO grade III, oral solution 25 mg once daily",36.73%
same,MR cases,patients with meningioma; [12],6
same,PR cases,patients with meningioma; [12],4
same,MR case,patients with meningioma; [13],1
same,PR cases,patients with meningioma; [13],2
same,patients exhibited tumor shrinkage after administration,patients with meningioma; [14],26 patients
same,"patients exhibiting tumor shrinkage after administration, share of all patients",patients with meningioma; [14],76.5%
same,viability at 0.4 µM,[3]; compound (I) 0.4 µM,71.8 ± 4.06%
same,viability at 0.8 µM,[3]; compound (I) 0.8 µM,56.8 ± 5.19%
same,viability at 1.6 µM,[3]; compound (I) 1.6 µM,48.3 ± 10.5%
same,viability at 2 µM,[3]; compound (I) 2 µM,45.3 ± 1.91%
same,viability at 10 µM,[3]; compound (I) 10 µM,35 ± 3.93%
same,viability at 20 µM,[3]; compound (I) 20 µM,22.6 ± 2.72%
same,viability at 60 µM,[3]; compound (I) 60 µM,19.3 ± 0.52%
same,viability at 80 µM,[3]; compound (I) 80 µM,6.33 ± 1.71%
same,viability at 120 µM,[3]; compound (I) 120 µM,0%
same,late apoptosis,CH157-MN [4],significantly increased
same,total cell apoptosis ratio,CH157-MN [4]; with increasing concentration,increased
same,late apoptosis,IOMM-Lee [5],significantly increased
same,total cell apoptosis ratio,IOMM-Lee [5]; with increasing concentration,increased
same,cell scratch healing,CH157-MN [6],significantly weaker cell scratch healing than that of the blank control group
same,cell scratch healing,IOMM-Lee [7],significantly weaker cell scratch healing than that of the blank control group
same,invasion rates,CH157-MN [8],significantly decreased
same,invasion rates,IOMM-Lee [9],significantly decreased
